From ChEMBL document CHEMBL3822426, “A cascade screening approach for the identification of Bcr-Abl myristate pocket binders active against wild type and T315I mutant” (Bioorg Med Chem Lett, 2016)
Activity calls are given as the source filed them. The calls are words filed in the database; no cut-off is given here.

Columns and labels:
[1] = Cytotoxicity against imatinib mesylate resistant mouse 32D cells expressing BCR/ABL T315I mutant assessed as reduction in cell viability after 48 hrs by cell counting method; type: functional, cell-based
[2] = Cytotoxicity against imatinib mesylate sensitive mouse 32D cells expressing wild type BCR/ABL p210 assessed as reduction in cell viability after 48 hrs by cell counting method; type: functional, cell-based
[3] = Cytotoxicity against mouse 32D cells assessed as reduction in cell viability at 0.5 to 50 uM after 48 hrs by cell counting method; type: cell-based
[4] = tested on: Bcr/Abl fusion protein (Homo sapiens), P00519+P11274 [T315I]; experiment: Inhibition of BCR/ABL T315I mutant (unknown origin) expressed in mouse 32D cells assessed as reduction in CRKL phosphorylation at Tyr-207 residue at 1 uM after 24 hrs by Western blot analysis; type: cell-based
[5] = target: Tyrosine-protein kinase ABL1 (Homo sapiens, UniProt P00519, T315I); experiment: Allosteric inhibition of recombinant human N-terminal His6-tagged ABL (27-end residues) T315I mutant expressed in baculovirus infected sf21 cells using Abl-tide as substrate incubated for 10 mins in presence of [gamma32P]ATP by scintillation counting method
[6] = tested on: Tyrosine-protein kinase ABL1 (Homo sapiens), P00519 [T315I]; conditions: Sf21, 50 uM
Description: Allosteric inhibition of recombinant human N-terminal His6-tagged ABL (27-end residues) T315I mutant expressed in baculovirus infected sf21 cells assessed as Vmax(app) for ATP at 50 uM incubated for 10 mins in presence of [gamma32P]ATP by scintillation counting method

[7] = target: Tyrosine-protein kinase ABL1 (Homo sapiens) (UniProt P00519); conditions: 50 uM
Description: Allosteric inhibition of recombinant wild type ABL (unknown origin) assessed as Vmax(app) for ATP at 50 uM incubated for 10 mins in presence of [gamma32P]ATP by scintillation counting method

[8] = tested on: Tyrosine-protein kinase ABL1 (Homo sapiens), P00519 [T315I]; conditions: Sf21, 100 uM
Description: Allosteric inhibition of recombinant human N-terminal His6-tagged ABL (27-end residues) T315I mutant expressed in baculovirus infected sf21 cells assessed as Vmax(app) for ATP at 100 uM incubated for 10 mins in presence of [gamma32P]ATP by scintillation counting method

[9] = target: Tyrosine-protein kinase ABL1 (Homo sapiens) (UniProt P00519); conditions: 25 uM
Description: Allosteric inhibition of recombinant wild type ABL (unknown origin) assessed as Vmax(app) for ATP at 25 uM incubated for 10 mins in presence of [gamma32P]ATP by scintillation counting method

[10] = tested on: Tyrosine-protein kinase ABL1 (Homo sapiens), P00519 [T315I]; conditions: Sf21, 25 uM
Description: Allosteric inhibition of recombinant human N-terminal His6-tagged ABL (27-end residues) T315I mutant expressed in baculovirus infected sf21 cells assessed as Vmax(app) for ATP at 25 uM incubated for 10 mins in presence of [gamma32P]ATP by scintillation counting method

[11] = target: Tyrosine-protein kinase ABL1 (Homo sapiens) (UniProt P00519); conditions: 100 uM
Description: Allosteric inhibition of recombinant wild type ABL (unknown origin) assessed as Vmax(app) for ATP at 100 uM incubated for 10 mins in presence of [gamma32P]ATP by scintillation counting method

With `C(=C\n1ncc2c(N3CCCCCC3)ncnc21)/c1ccccc1` the IC50 [1] was 13.8 µM, the IC50 [2] was 1.2 µM and the Activity [3] was “Non-toxic”. For the same molecule, the inhibition [4] was “Active” and the IC50 [5] was 20 µM.

`C(=C\n1ncc2c(NC3CCCCC3)ncnc21)/c1ccccc1` showed a Vmax(app) [6] of 8.06 pmol/min, a Vmax(app) [7] of 8.57 pmol/min and an IC50 [1] of 25.1 µM. It also gave an IC50 [2] of 8.5 µM, a Vmax(app) [8] of 4.95 pmol/min and a Vmax(app) [9] of 13.1 pmol/min. The Activity [3] was “Non-toxic”, the inhibition [4] was “Active” and the IC50 [5] was 50 µM. The Vmax(app) [10] was 15 pmol/min and the Vmax(app) [11] was 5.83 pmol/min.
